For assay [1], the system named is A549. The assay can be described thus: Antiproliferative activity against human A549 cells assessed as reduction in cell growth incubated for 24 hrs by MTT assay. The settings on record: A549, 24 h. The class given is functional, cell-based.
The next assay has as its system A-375. The assay can be described thus: Antiproliferative activity against human A375 cells assessed as reduction in cell growth incubated for 24 hrs by MTT assay. The class given is functional, cell-based. The settings on record: A-375, 24 h.
The nature of assay [2]: Cytotoxicity against mouse tsFT210 cells. In kind it is functional.
The nature of assay [3]: Potency index, ratio of paclitaxel IC50 to laulimalide IC50 for cytotoxicity against human SKVLB-1 cells. In kind it is functional.
The next assay has as its system BGC-823. The assay can be described thus: Antiproliferative activity against human BGC823 cells assessed as reduction in cell growth incubated for 24 hrs by MTT assay. The class given is functional, cell-based. As to conditions: BGC-823, 24 h. (Formazan colour is commonly taken as a measure of viable cells.)
In assay [4] the test system is HeLa. The assay can be described thus: Antiproliferative activity against human HeLa cells assessed as reduction in cell growth. The class given is functional, cell-based.
A further assay has as its system MDA-MB-231. Nature of the assay: Antiproliferative activity against human MDA-MB-231 cells assessed as reduction in cell growth. The class given is functional, cell-based.
The subject of a further assay is MCF7. Nature of the assay: Antiproliferative activity against human MCF7 cells assessed as reduction in cell growth. The class given is functional, cell-based.
Assay [5] in a line: Antiproliferative activity against mouse EMT6/AR1 cells assessed as reduction in cell growth. In kind it is functional, cell-based.
The subject of the next assay is K562. The assay can be described thus: Antiproliferative activity against human K562 cells assessed as reduction in cell growth incubated for 48 hrs by MTT assay. The class given is functional, cell-based. As to conditions: K562, 48 h.
The nature of assay [6]: Antiproliferative activity against human MCF cells assessed as reduction in cell growth incubated for 48 hrs by MTT assay. The class given is functional, cell-based.
A short description of assay [7]: Antiproliferative activity against human […] cells assessed as reduction in cell growth incubated for 48 hrs by MTT assay. In kind it is functional, cell-based.
Assay [8] has as its system P388. The assay can be described thus: Antiproliferative activity against mouse P388 cells assessed as reduction in cell growth incubated for 48 hrs by MTT assay. In kind it is functional, cell-based. As to conditions: P388, 48 h.
Assay [9] concerns A549. The assay can be described thus: Antiproliferative activity against human A549 cells assessed as reduction in cell growth incubated for 48 hrs by MTT assay. In kind it is functional, cell-based. As to conditions: A549, 48 h.
A further assay concerns WiDr. Nature of the assay: Antiproliferative activity against human WiDr cells assessed as reduction in cell growth incubated for 48 hrs by MTT assay. In kind it is functional, cell-based.
Assay [10] relates to HeLa. The assay can be described thus: Antiproliferative activity against human HeLa cells assessed as reduction in cell growth incubated for 48 hrs by MTT assay. The class given is functional, cell-based.
In a further assay the target is Tubulin. Nature of the assay: Inhibition of tubulin polymerization (unknown origin). In kind it is protein-complex assay, Homo sapiens.
The species named for another assay is Bos taurus. Nature of the assay: Inhibition of bovine brain microtubule assembly at 250 uM by turbidimetric assay relative to control.
Another assay deals with CA46. The assay can be described thus: Cytotoxicity against human CA46 cells assessed as inhibition of tubulin polymerization after 36 hrs. The class given is functional, cell-based. As to conditions: CA46, 36 h.
Another assay has as its system SKM-1. Nature of the assay: Antiproliferative activity against human SKM1 cells assessed as reduction in cell growth. The class given is functional, cell-based.
The next assay has as its system HT-29. The assay can be described thus: Antiproliferative activity against human HT-29 cells assessed as reduction in cell growth. In kind it is functional, cell-based.
The subject of a further assay is U-937. Nature of the assay: Antiproliferative activity against human U937 cells assessed as reduction in cell growth. In kind it is functional, cell-based.
A short description of assay [11]: Antiproliferative activity against human MEL28 cells assessed as reduction in cell growth. As to conditions: SK-MEL-28. In kind it is functional, cell-based.
The test system of assay [12] is A549. The assay can be described thus: Antiproliferative activity against human A549 cells assessed as reduction in cell growth. In kind it is functional, cell-based.
The subject of assay [13] is P388. Nature of the assay: Antiproliferative activity against mouse P388 cells assessed as reduction in cell growth. The class given is functional, cell-based.

The structures appear in SMILES notation. Values after ≈ are worked out from the molar mass of the structure shown.

As usually defined, the IC50 is the midpoint of a concentration-inhibition curve. The term inhibition denotes the change of the read-out against control, counted positive when it falls. Low values mean a response near the control, high ones a response far below the control.

Take `CC[C@@]1(C)Oc2cc(c([S+]([O-])CCCCCO)cc2O)[C@@H](O)[C@H](NC)C(=O)N[C@@H](C(C)C)C(=O)NC1C(=O)NCC(=O)O` (some centres undefined): the IC50 in the assay with A549 [1] was 36.5 µM; in the assay with A-375, 22.5 µM.
In turn, `CC(C)=CCc1[nH]c2ccccc2c1C[C@@H]1NC(=O)[C@@H]2CCCN2C1=O` [TRYPROSTATIN B] gave an MIC in assay [2] of 4.4 µM (≈ 1.55 µg/mL).
With `C=C1C[C@H](C)C[C@@H]2CC=C[C@@H](C/C=C\C(=O)O[C@H]([C@@H](O)/C=C/[C@@H]3CC(C)=CCO3)C[C@@H]3O[C@H]3[C@@H](O)C1)O2` [FIJIANOLIDE B], the “Ratio IC50” value in assay [3] was found to be 100.
With `CC[C@@]1(C)Oc2cc(c([S+]([O-])C[C@@H](O)C[C@H](N)C(=O)O)cc2O)[C@@H](O)[C@H](NC)C(=O)N[C@@H](C)C(=O)NC1C(=O)NCC(=O)O` (some centres undefined), the IC50 in the assay with BGC-823 stood at 1.03 µM.
Regarding `COc1cc2cc(c1Cl)N(C)C(=O)C[C@H](OC(=O)C(C)C)[C@]1(C)O[C@@H]1[C@H](C)[C@@H]1C[C@@](O)(NC(=O)O1)[C@H](OC)/C=C/C=C(\C)C2` [ANSAMITOCIN P3], the IC50 stood at 0.00506 µM in the assay with HeLa [4], 0.0151 µM in the assay with MDA-MB-231, 0.00206 µM in the assay with MCF7 and 0.141 µM in assay [5].
As for `COc1cc(/C=N/OC/C=C/C=C(\C)CCC(O)c2cccs2)cc(OC)c1OC` (centres undefined), the IC50 in the assay on MDA-MB-231 worked out at 0.12 µM.
For `C=CCC1(CC/C(C)=C/C=C/CC/C=C\[C@]2(C)CSC([C@@H]3C[C@@H]3C)=N2)OCCO1`, in the assay with MCF7, the IC50 is 0.03 µM.
In the case of `C=CC(C)(C)c1[nH]cnc1/C=C1\NC(=O)[C@H](Cc2ccccc2)NC1=O`, the IC50 (in the assay with K562; in assay [6]; in assay [7]; in the assay with P388 [8]; in the assay with A549 [9]; in the assay with WiDr) was 0.18 to 0.33 µM in each case. Moreover, the IC50 with HeLa [10] lay in the range of 0.18 to 0.33 µM.
For `CC(C)(C)c1[nH]cnc1/C=c1\[nH]c(=O)/c(=C/C(=O)c2ccccc2)[nH]c1=O`, the IC50 against Tubulin turned out to be 1.4 µM.
Turning to `COc1ccc2c(C[C@@H]3NC(=O)[C@@H]4CCCN4C3=O)c(CC=C(C)C)[nH]c2c1` [TRYPROSTATIN A], the MIC in [2] worked out at 16.4 µM (≈ 6.26 µg/mL). Besides, the inhibition in the assay listed under Bos taurus is 40%.
Turning to `CC(C)(C)c1[nH]cnc1/C=c1\[nH]c(=O)/c(=C/c2cc(F)ccc2F)[nH]c1=O`, at Tubulin, the IC50 is 0.0026 µM.
As to `COc1ccc(-c2oc3cc(O)c(OC)c(O)c3c(=O)c2OC)cc1O` [CENTAUREIDIN], in the assay on CA46, the IC50 came out at 2 µM.
Turning to `C=C1C[C@@H]2C/C=C/C(=O)C/C(C)=C\C=C\C(=O)O[C@H]([C@H](O)NC(=O)/C=C\C=C\C)C/C(C)=C/[C@H](C1)O2` [ZAMPANOLIDE], the IC50 with SKM-1 is 0.0011 µM; with HT-29, 1 to 5 ng/mL (≈ 2.02 to 10.1 nM); in the assay with U-937 it was 0.0029 µM; in [11] it was 1 to 5 ng/mL (≈ 2.02 to 10.1 nM); in the assay with A549 [12], 1 to 5 ng/mL (≈ 2.02 to 10.1 nM); with P388 [13], 1 to 5 ng/mL (≈ 2.02 to 10.1 nM).

The values above are taken from ChEMBL document CHEMBL4385609, “Anti-tubulin agents of natural origin: Targeting taxol, vinca, and colchicine binding domains” (Eur J Med Chem, 2019).
